System: striatal stem cells
Test: Differentiation of striatal stem cells (TuJ1 positive cells)
Assay type: cell-based, rat
Settings: for % TuJ1 positive cells: striatal stem cells, Table 6
Excerpt: Isolation of cortical and striatal stem cells. Timed pregnant Sprague Dawley rats obtained from Taconic at embryonic age E14-E15 were sacrificed as described above and the uterus removed and placed in ice cold PBS in a 10 cm petridish. After rinsing the uterus in PBS, embryos were removed from the uterus, rinsed in PBS and collected in cold HBSS (buffered with HEPES and sodium bicarbonate) in a 10 cm petridish and placed on ice.
The cortex and striatum was dissected under a microscope and collected in a 15 ml tube of HBSS, on ice. Removal of meninges is not possible at this age, and no attempt was made to do so. If the dissected tissue was in large enough chunks and settle to the bottom of the tube, no centrifugation was performed. Alternatively, the tube was centrifuged at 1000 rpm for 5 minutes to pellet the tissue. Following centrifugation, the 15 ml tube containing the tissue was sprayed with 70% ethanol and taken into the sterile hood.
The HBSS was aspirated and replaced with 10 ml of DMEM/F12. The tissue was collected at the bottom of the tube by gravity or centrifugation, medium was aspirated, and 1 ml of DMEM/F12 was to the tissue. Cells were dissociated by trituration as described above, followed by addition of 5 ml of DMEM/F12 and a second round of trituration. […] The tubes were placed standing 5–10 minutes in the hood to allow larger particles and meninges to settle. While the meninges were settling, a cell count was made. 10 μl of the cell suspension is diluted with trypan blue and counted in a hemocytometer. Cells were counted in the four outer chambers with the larger squares, and cell count calculated assuming that the volume enclosed in each of the chambers was […].
Plating, expansion and passaging of cortical and striatal stem cells A generous amount of the triturated cell suspension was left in the original 15 ml tube to avoid fibroblast contamination in cultures. About 4–5 ml of the 6 ml of cells suspension was used for plating. Cells were plated at a concentration of approximately 1×10^6 per 10 cm dish. This culture is designated P0 (passage 0).
Following plating cells were expanded for about 3–4 days. The cultures were never permitted to reach more than 70% confluency. Cultures were then passaged as follows: 5 ml of HBSS was added to each 10 cm dish and the cells incubated at 37° C. for 15–45 minutes, or until sufficient numbers of the stem cells were rounded up. It is not expected that all cells in the culture will round up as there are several cell types in the culture at P0. The pH of the HBSS should be neutral at all times during this incubation. Cells were then removed from the dish by pipetting with a 5 ml pipette, or by scraping with a policeman, collected in a 15 or 50 ml conical tube, and centrifuged at 1000 g for 5 minutes. Cells were gently re-suspended in medium, counted, and plated at a density of about 1×10^6 per 10 cm dish.
Drug treatments. Stem cells obtained as described above were treated with drugs and subjected to differentiation protocols in the second passage. Cells were plated at a density of 1×10^4 cells per well of a 12-well petridish (Falcon).
Drug treatments were started on the next day. […] The WAY 100635 antagonist compound was used simultaneously with buspirone or serotonin in the blocking experiments. Positive and negative control cultures were those treated with BDNF and FGF alone, respectively. […]

O=C1CC2(CCCC2)CC(=O)N1CCCCN1CCN(c2ncccn2)CC1 [buspirone, 8-[4-[4-(2-pyrimidinyl)-1-piperazinyl]butyl]-8-azaspiro[4,5]decane-7,9-dione]
% TuJ1 positive cells (100 nM): 54.4 ± 2.1% | % TuJ1 positive cells (500 nM): 64.8 ± 2.1% | % TuJ1 positive cells (10 μM): 67.9 ± 10.2% | % TuJ1 positive cells (100 μM): 68.5 ± 6.5% | promotion of differentiation compared to untreated control cultures (in words) (striatum, concentrations as low as 100 nM): able to promote differentiation significantly

Reference: patent publication US7132287B2, “Method for neural stem cell differentiation using 5HT-1A agonists” (Psychiatric Genomics, Inc., priority 2001, dated 2006)
